According to patent US5652238A, “Esters of substituted-hydroxyacetyl piperazine phenyl oxazolidinones” (Pharmacia & Upjohn Company, priority 1996, dated 1997):
≈ marks a conversion by molar mass, not a printed value. Where a name gives a salt, the structure may show the parent alone.

What was measured:
[1] = Aqueous solubility (pH 7, phosphate buffer); format: physicochemical
[2] = tested on: Staphylococcus aureus UC9213 or Streptococcus species; assay: Antimicrobial activity in vivo, Murine Assay (mice infected intraperitoneally with bacteria; ED50 from survival over six days); conditions: 144 h, female mice, treatment one hour and five hours after infection
Description: Antimicrobial activity was tested in vivo using the Murine Assay procedure. Groups of female mice (six mice of 18-20 grams each) were injected intraperitoneally with bacteria which were thawed just prior to use and suspended in brain heart infusion with 4% brewers yeast UC9213 (Staphylococcus aureus) or brain heart infusion (Streptococcus species). Antibiotic treatment at six dose levels per drug was administered one hour and five hours after infection by either oral intubation or subcutaneous ("subcut.") routes. Survival was observed daily for six days. ED50 values based on mortality ratios were calculated using probit analysis. The subject compounds were compared against a well-known antimicobial (Vancomycin) as a control.

Structure (SMILES)	solubility [1] [µg/mL]	ED50 ([2]; oral) [mg/kg]	ED50 ([2]; sc, subcut.) [mg/kg]
CC(=O)CCC(=O)OCC(=O)N1CCN(c2ccc(N3C[C@H](CNC(C)=O)OC3=O)cc2F)CC1 [Example 19, 4-Oxo-valeric acid, 2-(4-(4-(5-((acetylamino)methyl)-2-oxo-3-oxazolidinyl)-2-fluorophenyl)-1-piperazinyl)-2-oxoethyl monoester, (S)]	2290 (≈ 4.65 mM)		
COCC(=O)OCC(=O)N1CCN(c2ccc(N3C[C@H](CNC(C)=O)OC3=O)cc2F)CC1 [Example 25, Methoxyacetic acid, 2-(4-(4-(5-((acetylamino)methyl)-2-oxo3-oxazolidinyl)-2-fluorophenyl)-1-piperazinyl)-2-oxoethyl ester, (S)]	6400 (≈ 13.7 mM)	8	15
CC(=O)NC[C@H]1CN(c2ccc(N3CCN(C(=O)COC(=O)c4ccc(NC(=O)CN(C)C)cc4)CC3)c(F)c2)C(=O)O1 [Example 28, 4-N-(N,N-dimethylglycinyl)aminobenzoic acid, 2-[4-[4-[5-[(acetylamino)methyl]-2-oxo-3-oxazolidinyl]-2-fluorophenyl]-1-piperazinyl]-2-oxoethyl ester, (S)-]	90 (≈ 0.15 mM)		
CC(=O)NC[C@H]1CN(c2cc(F)c(N3CCN(C(=O)COC(=O)CO)CC3)c(F)c2)C(=O)O1 [Example 24, Hydroxyacetic acid, 2-[4-[4-[5-[(acetylamino)methyl]-2-oxo-3-oxazolidinyl]-2,6-difluorophenyl]-1-piperazinyl]-2-oxoethyl ester,]		1	
CC(=O)NC[C@H]1CN(c2ccc(N3CCN(C(=O)COC(=O)c4ccc(N(C)C)cc4)CC3)c(F)c2)C(=O)O1 [Example 7, 4-dimethylaminobenzoic acid, 2-[4-[4-[5-[(acetylamino)methyl]-2-oxo-3-oxazolidinyl]-2-fluorophenyl]-1-piperazinyl]-2-oxoethyl ester, (S)-]	10 (≈ 0.0185 mM)	> 20	1
CC(=O)NC[C@H]1CN(c2ccc(N3CCN(C(=O)COC(=O)CN(C)C)CC3)c(F)c2)C(=O)O1 [Example 9, Glycine, N,N-dimethyl-, 2-[4-[4-[5-[(acetylamino)methyl]-2-oxo-oxazolidinyl]-2-fluorophenyl]-1-piperazinyl]-2-oxoethyl ester, (S)-]	150000 (≈ 313 mM)	2	3
CC(=O)NC[C@H]1CN(c2ccc(N3CCN(C(=O)COC(=O)CO)CC3)c(F)c2)C(=O)O1 [Example 23, Hydroxyacetic acid, 2-[4-[4-[5[(acetylamino)methyl]-2-oxo-3-oxazolidinyl]-2-fluorophenyl]-1-piperazinyl]-2-oxoethyl ester, (S)]	4200 (≈ 9.28 mM)	2	1
CC(=O)NC[C@H]1CN(c2cc(F)c(N3CCN(C(=O)COC(=O)CN(C)C)CC3)c(F)c2)C(=O)O1 [Example 10, Glycine, N,N-dimethyl-, 2-[4-[4-[5-[(acetylamino)methyl]-2-oxo-3-oxazolidinyl]-2,6-difluorophenyl]-1-piperazinyl]-2-oxoethyl ester, (S)-]	4200 (≈ 8.44 mM)	1	2
CC(=O)NC[C@H]1CN(c2ccc(N3CCN(C(=O)COP(=O)(O)O)CC3)c(F)c2)C(=O)O1 [Example 20, Phosphoric acid, 2-(4-(4-(5-((acetylamino)methyl)-2-oxo-3-oxazolidinyl)-2-fluorophenyl)-1-piperazinyl)-2-oxoethyl ester, (S)]	25700 (≈ 54.2 mM)	6	4
COCCOC(=O)OCC(=O)N1CCN(c2ccc(N3C[C@H](CNC(C)=O)OC3=O)cc2F)CC1 [Example 6, Carbonic acid, 2-[4-[4-[5-[(acetylamino)methyl]-2-oxo-3-oxazolidinyl]-2-fluorophenyl]-1-piperazinyl]-2-oxoethyl ester-2-methoxyethyl ester, (S)]	2900 (≈ 5.84 mM)	2	2
CC(=O)NC[C@H]1CN(c2cc(F)c(N3CCN(C(=O)COC(=O)CCC(=O)O)CC3)c(F)c2)C(=O)O1 [Example 16, Succinic acid, 2-(4-(4-(5-((acetylamino)methyl)-2-oxo-3-oxazolidinyl)-2,6-difluorophenyl)-1-piperazinyl)-2-oxoethyl monoester, sodium salt, (S)]		4	
CC(=O)NC[C@H]1CN(c2ccc(N3CCN(C(=O)COC(=O)CCCN(C)C)CC3)c(F)c2)C(=O)O1 [Example 12, 4-(Dimethylamino)butanoic acid, 2-[4-[4-[5-[(acetylamino)methyl]-2-oxo-3-oxazolidinyl]-2-fluorophenyl]-1-piperazinyl]-2-oxoethyl ester, (S)-]	34600 (≈ 68.2 mM)	12	> 20
CC(=O)NC[C@H]1CN(c2ccc(N3CCN(C(=O)COC(=O)CN4CCOCC4)CC3)c(F)c2)C(=O)O1 [Example 27, (4-morpholinyl)acetic acid, 2-(4-(4-(5-((acetylamino)methyl)-2-oxo-3-oxazolidinyl)-2-fluorophenyl)-1-piperazinyl)-2-oxoethyl ester, (S)]	55300 (≈ 106 mM)	6	
CC(=O)NC[C@H]1CN(c2ccc(N3CCN(C(=O)COC(=O)n4ccnc4)CC3)c(F)c2)C(=O)O1 [Example 4, 1H-imidazole-1-carboxylic acid, 2-[4-[4-[5-[(acetylamino)methyl]-2-oxo-3-oxazolidinyl]-2-fluorophenyl]-1-piperazinyl]-2-oxoethyl ester, (S)-]	1400 (≈ 2.87 mM)	2	2
CC(=O)NC[C@H]1CN(c2cc(F)c(N3CCN(C(=O)COC(=O)CCC(=O)O)CC3)c(F)c2)C(=O)O1 [Example 15, Succinic acid, 2-(4-(4-(5-((acetylamino)methyl)-2-oxo-3-oxazolidinyl)-2,6-difluorophenyl)-1-piperazinyl)-2-oxoethyl monoester, (S)]	12300 (≈ 24 mM)		
CC(=O)NC[C@H]1CN(c2ccc(N3CCN(C(=O)COC(=O)c4ccc(N)cc4)CC3)c(F)c2)C(=O)O1 [Example 21, 4-aminobenzoic acid, 2-[4-[4-[5-[(acetylamino)methyl]-2-oxo-3-oxazolidinyl]-2-fluorophenyl]-1-piperazinyl]-2-oxoethyl ester, (S)-]	30 (≈ 0.0584 mM)	8	13
CC(=O)NC[C@H]1CN(c2cc(F)c(N3CCN(C(=O)COC(=O)c4cccnc4)CC3)c(F)c2)C(=O)O1 [Example 3, Nicotinic acid, 2-[4-[4-[5-[(acetylamino)methyl]-2-oxo-3-oxazolidinyl]-2,6-difluorophenyl]-1-piperazinyl]-2-oxoethyl ester, (S)-6]	50 (≈ 0.0966 mM)	16	8
CC(=O)NC[C@H]1CN(c2ccc(N3CCN(C(=O)COC(=O)CCC(=O)O)CC3)c(F)c2)C(=O)O1 [Example 17]	28000 (≈ 56.6 mM)	5	2
CC(=O)NC[C@H]1CN(c2ccc(N3CCN(C(=O)COC(=O)c4cccnc4)CC3)c(F)c2)C(=O)O1 [Example 2, Nicotinic acid, 2-[4-[4-[5-[(acetylamino)methyl]-2-oxo-3-oxazolidinyl]-2-fluorophenyl]-1-piperazinyl]-2-oxoethyl ester, (S)-]	300 (≈ 0.601 mM)	9	15
CC(=O)NC[C@H]1CN(c2ccc(N3CCN(C(=O)COC(=O)CN4CCN(C)CC4)CC3)c(F)c2)C(=O)O1 [Example 13, (4-Methyl-1-piperazinyl)acetic acid, 2-[4-[4-[5-[(acetylamino)methyl]-2-oxo-3-oxazolidinyl]-2-fluorophenyl]-1-piperazinyl]-2-oxoethyl ester, (S)-]	79100 (≈ 148 mM)	> 20	> 20
CC(=O)NC[C@H]1CN(c2ccc(N3CCN(C(=O)COC(=O)CCN4CCOCC4)CC3)c(F)c2)C(=O)O1 [Example 1, 3-(4-Morpholinyl)propionic acid, 2-(4-(4-(5-((acetylamino)methyl)-2-oxo-3-oxazolidinyl)-2-fluorophenyl)-1-piperazinyl)-2-oxoethyl ester, (S)]	36000 (≈ 67.2 mM)	5	4
CC(=O)NC[C@H]1CN(c2ccc(N3CCN(C(=O)COC(=O)CCN(C)C)CC3)c(F)c2)C(=O)O1 [Example 11, 3-(Dimethylamino)propanoic acid, 2-[4-[4-[5-[(acetylamino)methyl]-2-oxo-3-oxazolidinyl]-2-fluorophenyl]-1-piperazinyl]-2-oxoethyl ester, (S)-]		8	8
CC(=O)CCC(=O)OCC(=O)N1CCN(c2c(F)cc(N3C[C@H](CNC(C)=O)OC3=O)cc2F)CC1 [Example 18, 4-Oxo-valeric acid, 2-(4-(4-(5-((acetylamino)methyl)-2-oxo-3-oxazolidinyl)-2,6-difluorophenyl)-1-piperazinyl)-2-oxoethyl ester, (S)]	1200 (≈ 2.35 mM)	14	> 20
CC(=O)NC[C@H]1CN(c2cc(F)c(N3CCN(C(=O)COC(=O)CCN4CCOCC4)CC3)c(F)c2)C(=O)O1 [Example 26, 3-(N-morpholinyl)propionic acid, 2-(4-(4-(5-((acetylamino)methyl)-2-oxo-3-oxaxzolidinyl)-2,6-difluorophenyl)-1-piperazinyl)-2-oxoethyl ester, (S)]	8200 (≈ 14.8 mM)	6	3
CC(=O)NC[C@H]1CN(c2cc(F)c(N3CCN(C(=O)COC(=O)n4ccnc4)CC3)c(F)c2)C(=O)O1 [Example 5, 1H-imidazole-1-carboxylic acid, 2-[4-[4-[5-[(acetylamino)methyl]-2-oxo-3-oxazolidinyl]-2,6-difluorophenyl]-1-piperazinyl]-2-oxoethyl ester, (S)-]		7	5
